In patent publication US7125897B1, “Combined therapies for atherosclerosis treatment” (Vasogen Ireland Limited, priority 1999, dated 2006):

Tests used:
Format in all cases: in vivo, human
[1] = Claudication distance in patient with peripheral arterial occlusive disease; settings: regular daily lovastatin plus 10 i.m. treatments of 10 ml autologous stressed blood over 14 weeks
Procedure: (§1) In a separate investigation, a patient suffering from peripheral arterial occlusive disease (a consequence of atherosclerosis) and receiving a regular, normal daily dose of lovastatin received 10 treatments of autologous stressed blood prepared as described above (10 ml aliquots, administered intramuscularly) over a 14-week period. As a result, their posterior tibial/brachial pressure index increased from 0.69 to 0.85, a very significant change.

[2] = Posterior tibial/brachial and dorsalis/brachial pressure index in patient with peripheral arterial occlusive disease
Procedure: (§2) The stressed blood treatment used in the study involves the collection of 10 ml of a patient's venous blood into 2-ml of sodium citrate 3.13% as anticoagulant. The blood sample is transferred to a sterile, disposable low-density polyethylene vessel (model #V7002) for ex vivo treatment and is then exposed to the following three stimuli: • 1) An elevated temperature of 42.5° C.±1.0° C. at steady state controlled and monitored with a thermocouple; • 2) a gas mixture of medical oxygen containing 14.5±1.0 ug/ml of ozone, at a flow rate of 240±24 ml/min for 3 minutes; • 3) Ultra-violet light at a wavelength of 253.7 nm, and a total energy of 2.0 joules/cm^2.
(§3) The ex vivo treatment of the patient's blood sample is performed within a Blood Treatment Unit (model #V7001), generally described in U.S. Pat. No. 4,968,483 Mueller. The Unit regulates and monitors these physicochemical agents. The temperature of the blood is raised to 42.5° C., a process that takes up to 8 minutes depending upon the starting temperature of the blood sample. Before this temperature is reached the UV lights turn on, so that they reach maximum output by the time that the gas flow is initiated, which occurs when the temperature of the blood reaches 42.5° C. The total time of exposure to UV light is about 9 minutes. The gas mixture is bubbled through the blood sample at a flow rate of 240±24 ml/min for a period of 3 minutes while the temperature of the blood is maintained and UV irradiation continues. At the end of the treatment with the three stimuli (stressors), the blood is allowed to settle for 7 minutes. The device then signals that the treatment has been completed successfully. The entire process takes about 20 minutes.
as §1

[3] = Ankle/brachial artery pressure ratio (ABPI) in patient with intermittent claudication; settings: left leg; for ankle/brachial artery pressure ratio (ABPI): margin of error 0.1
Procedure: as §2, §3
A person with intermittent claudication (a cramping pain caused by arterial obstruction and indicative of the presence of a relatively advanced stage of atherosclerosis) in their left leg, was administered fluvastatin 20 mg. daily for hypercholesterolemia. Their initial ankle/brachial artery pressure ratio (ABPI) in the left leg was 0.60, normal values being greater than 0.9. […]

[4] = regular daily lovastatin plus 10 i.m. treatments of 10 ml autologous stressed blood over 14 weeks
[5] = regular daily lovastatin, before stressed blood treatments

Structure (SMILES) | claudication distance (walking distance before experiencing cramping pain in the legs) [1] | dorsalis (foot artery)/brachial pressure index [2, 4] | posterior tibial/brachial pressure index [2, 4] | dorsalis (foot artery)/brachial pressure index [2, 5] | posterior tibial/brachial pressure index [2, 5] | ankle/brachial artery pressure ratio (ABPI) ([3]; fluvastatin 20 mg daily plus 9 i.m. treatments with 10 ml stressed autologous blood over 3 weeks) | ankle/brachial artery pressure ratio (ABPI) ([3]; fluvastatin 20 mg daily plus stressed blood, 2 months after the end of treatment schedule) | initial ankle/brachial artery pressure ratio (ABPI) ([3]; fluvastatin 20 mg daily, before stressed blood treatments, normal values greater than 0.9)
CC[C@H](C)C(=O)O[C@H]1C[C@@H](C)C=C2C=C[C@H](C)[C@H](CC[C@@H]3C[C@@H](O)CC(=O)O3)[C@H]21 [lovastatin] | improved | 0.85 | 0.85 | 0.77 | 0.69 |  |  | 
CC(C)n1c(/C=C/C(O)CC(O)CC(=O)O)c(-c2ccc(F)cc2)c2ccccc21 (centres unmarked) [fluvastatin] |  |  |  |  |  | 0.66 | 0.75 | 0.60
